Data: ChEMBL document CHEMBL1140841, “Synthesis and biological evaluation of trimethyl-substituted cap analogs” (Bioorg Med Chem Lett, 2008)
Active and inactive are the calls of the source. No cut-off for these calls is given here.

Columns and labels:
[1] = mRNA capping efficiency after 2 hrs by gel shift assay relative to control
Escherichia phage T7 = assay: Effect on Enterobacteria phage T7 RNA polymerase RNA transcription after 2 hrs
HeLa = assay: Translation efficiency in human HeLa cells assessed as luciferase activity; type: functional, cell-based

| SMILES | Activity [1] [%] | Activity (Escherichia phage T7) | Activity (HeLa) |
| --- | --- | --- | --- |
| CO[C@@H]1[C@H](O)[C@@H](n2c[n+](C)c3c(=O)[nH]c(N)nc32)O[C@H]1COP(=O)([O-])OP(=O)(O)OP(=O)(O)OC[C@H]1O[C@@H](n2cnc3c(=O)[nH]c(N)nc32)[C@H](O)[C@@H]1O | 52 | Active | Active |
| C[n+]1cn([C@H]2O[C@@H](COP(=O)([O-])OP(=O)(O)OP(=O)(O)OC[C@H]3O[C@@H](n4cnc5c(=O)[nH]c(N)nc54)[C@H](O)[C@@H]3O)[C@H](O)[C@@H]2O)c2nc(N)[nH]c(=O)c21 | 61 |  |  |
| CO[C@@H]1[C@H](O)[C@@H](n2c[n+](C)c3c(=O)[nH]c(N)nc32)O[C@H]1COP(=O)([O-])OP(=O)(O)OP(=O)([O-])OC[C@H]1O[C@@H](n2c[n+](C)c3c(=O)[nH]c(N)nc32)[C@H](O)[C@@H]1O | 51 | Active | Active |
| C[n+]1cn([C@@H]2O[C@H](COP(=O)(O)OP(=O)([O-])OP(=O)([O-])OC[C@@H]3O[C@H](n4c[n+](C)c5c(=O)[nH]c(N)nc54)[C@@H](O)[C@H]3O)[C@@H](O)[C@H]2O)c2nc(N)[nH]c(=O)c21 | 56 | Active | Active |
